In patent US10449208B2, “Antiviral prodrugs of tenofovir” (Merck Sharp & Dohme Corp., priority 2016, dated 2019):
Read-outs that look alike come from different tables or passages of the source.

System: HIV-1 (H9/IIIB strain)
Assay: Multiple round HIV-1 infection assay (Viking assay) in MT4-GFP cells
Format: cell-based
Settings: MT4-GFP cells infected with HIV-1 H9/IIIB, inhibition of reproductive ratio R0
Protocol: Assessing Antiviral Potency in a Multiple Round HIV-1 Infection Assay (Viking Assay)
The antiviral activity of the tenofovir prodrugs of the Examples herein was assessed in an assay that measures the rate of replication of HIV in cell culture, termed the Viking assay (Viral KINetics in Green cells) and performed as follows. HIV-1 replication was monitored using MT4-gag-GFP clone D3 (hereafter designated MT4-GFP), which are MT-4 cells modified to harbor a GFP reporter gene, the expression of which is dependent on the HIV-1 expressed proteins tat and rev. Productive infection of an MT4-GFP cell with HIV-1 results in GFP expression approximately 24 h post-infection. MT4-GFP cells were maintained at 37° C./5% CO2/90% relative humidity in RPMI 1640 supplemented with 10% fetal bovine serum, 100 μ/ml penicillin/streptomycin, and 400 μg/ml G418 to maintain the reporter gene. For infections, MT4-GFP cells were placed in the same medium lacking G418 and infected overnight with HIV-1 (H9/IIIB strain) virus at an approximate multiplicity of infection of 0.01 in the same incubation conditions. Cells were then washed and re-suspended in either RPMI 1640 supplemented with 10% or 50% normal human serum (NFIS) at 1.6×10^5 cells/mL (10% NHS or 50% NHS, respectively). Compound plates were prepared by dispensing compounds dissolved in DMSO into wells of 384 well poly-D -lysine-coated plates (0.2 μl/well) using an ECHO acoustic dispenser. Each compound was tested in a 10-point serial 3-fold dilution (typical final concentrations: 8.4 μM-0.42 nM). Controls included no inhibitor (DMSO only) and a combination of three antiviral agents (efavirenz, indinavir, an in-house integrase strand transfer inhibitor at final concentrations of 4 μM each). Cells were added (50 μL/well) to compound plates and the infected cells were maintained at 37° C./5% CO2/90% relative humidity.
infected cells were quantified at two time points, ˜48 h and ˜72 h post -infection, by counting the number of green cells in each well using an Acumen eX3 scanner. The increase in the number of green cells over ˜24 h period gives the reproductive ratio, R0, which is typically 5-15 and has been shown experimentally to be in logarithmic phase (data not shown). Inhibition of R0 is calculated for each well, and IC50s determined by non-linear 4-parameter curve fitting.

[1] = Human immunodeficiency virus 1, IIIB, 10% normal human serum, read-out: Viking, IC50 (10% NHS)
[2] = Human immunodeficiency virus 1, IIIB, 50% normal human serum, read-out: Viking, IC50 (50% NHS)
[3] = 10% normal human serum, read-out: Viking, IC50 (10% NHS)
[4] = 50% normal human serum, read-out: Viking, IC50 (50% NHS)

Compound | IC50 [1] | IC50 [2] | IC50 [3] | IC50 [4]
CCCCCCOC(=O)C(C)(C)NP(=O)(CO[C@H](C)Cn1cnc2c(N)ncnc21)OC(C)(C)C(=O)OC(C)C (stereo partly drawn) [Example 44, Hexyl 2-((((((R)-1-(6-amino-9H-purin-9-yl)propan-2-yl)oxy)methyl)((1-isopropoxy-2-methyl-1-oxopropan-2-yl)oxy)phosphoryl)amino)-2-methylpropanoate] | 0.00142 µM | 0.00181 µM | – | –
CC(C)OC(=O)[C@H](C)OP(=O)(CO[C@H](C)Cn1cnc2c(N)ncnc21)NC1(C(=O)OC(C)C)CCCCC1 (stereo partly drawn) [Example 52, Isopropyl 1-((((((R)-1-(6-amino-9H-purin-9-yl)propan-2-yl)oxy)methyl)(((S)-1-isopropoxy-1-oxopropan-2-yl)oxy)phosphoryl)amino)cyclo-hexane-1-carboxylate] | 0.0108 µM | 0.0456 µM | – | –
CC(C)OC(=O)[C@H](C)OP(=O)(CO[C@H](C)Cn1cnc2c(N)ncnc21)NC(C)(C)C(=O)OC1CCCC1 (stereo partly drawn) [Example 39, Cyclopentyl 2-((((((R)-1-(6-amino-9H-purin-9-yl)propan-2-yl)oxy)methyl)(((S)-1-isopropoxy-1-oxopropan-2-yl)oxy)phosphoryl)amino)-2-methylpropanoate] | 0.00343 µM | 0.0126 µM | – | –
CC(C)OC(=O)[C@H](C)OP(=O)(CO[C@H](C)Cn1cnc2c(N)ncnc21)NC(C)(C)C(=O)OC1CCCCC1 (single isomer, unassigned) [Example 12B] | – | – | 0.00607 µM | 0.0135 µM
CC(C)OC(=O)[C@H](C)OP(=O)(CO[C@H](C)Cn1cnc2c(N)ncnc21)NC(C)(C)C(=O)OC1CCC1 (single isomer, unassigned) [Example 16B] | – | – | 0.00475 µM | 0.0171 µM
CC(C)OC(=O)[C@H](C)OP(=O)(CO[C@H](C)Cn1cnc2c(N)ncnc21)NC1(C(=O)OC(C)C)CCC1 (stereo partly drawn) [Example 50, Isopropyl 1-((((((R)-1-(6-amino-9H-purin-9-yl)propan-2-yl)oxy)methyl)(((S)-1-isopropoxy-1-oxopropan-2-yl)oxy)phosphoryl)amino)cyclo-butane-1-carboxylate] | 0.00866 µM | 0.0343 µM | – | –
CC(C)OC(=O)COP(=O)(CO[C@H](C)Cn1cnc2c(N)ncnc21)NC(C)(C)C(=O)OC1CCC1 (single isomer, unassigned) [Example 17A] | 0.00639 µM | 0.0127 µM | – | –
CC(C)COC(=O)C(C)(C)NP(=O)(CO[C@H](C)Cn1cnc2c(N)ncnc21)OCC(=O)OC(C)C (stereo partly drawn) [Example 30, Isobutyl 2-((((((R)-1-(6-amino-9H-purin-9-yl)propan-2-yl)oxy)methyl)(2-isopropoxy-2-oxoethoxy)phosphoryl)amino)-2-methylpropanoate] | 0.00438 µM | 0.012 µM | – | –
CCOC(=O)C(C)(C)NP(=O)(CO[C@H](C)Cn1cnc2c(N)ncnc21)O[C@H](C)C(=O)OC(C)C (stereo partly drawn) [Example 29, Ethyl 2-((((((R)-1-(6-amino-9H-purin-9-yl)propan-2-yl)oxy)methyl)(((R)-1-isopropoxy-1-oxopropan-2-yl)oxy)phosphoryl)amino)-2-methylpropanoate] | 0.00922 µM | 0.0172 µM | – | –
C[C@H](Cn1cnc2c(N)ncnc21)OCP(=O)(NC(C)(C)C(=O)OC1CCCC1)O[C@@H](C)C(=O)OC1CCCC1 (single isomer, unassigned) [Example 5A] | 0.00571 µM | 0.045 µM | – | –
CCCCCOC(=O)C(C)(C)NP(=O)(CO[C@H](C)Cn1cnc2c(N)ncnc21)O[C@@H](C)C(=O)OC1CCCC1 (single isomer, unassigned) [Example 19A] | – | – | 0.014 µM | 0.0497 µM
CC(C)OC(=O)[C@H](C)OP(=O)(CO[C@H](C)Cn1cnc2c(N)ncnc21)NC(C)(C)C(=O)OC1CCC1 (single isomer, unassigned) [Example 16A] | 0.00261 µM | – | – | 0.0075 µM
CC(C)OC(=O)[C@H](C)OP(=O)(CO[C@H](C)Cn1cnc2c(N)ncnc21)NC1(C(=O)OC(C)C)CCCC1 (stereo partly drawn) [Example 48, Isopropyl 1-((((((R)-1-(6-amino-9H-purin-9-yl)propan-2-yl)oxy)methyl)(((S)-1-isopropoxy-1-oxopropan-2-yl)oxy)phosphoryl)amino)cyclo-pentane-1-carboxylate] | 0.0133 µM | 0.0373 µM | – | –
CC(C)OC(=O)COP(=O)(CO[C@H](C)Cn1cnc2c(N)ncnc21)NC(C)(C)C(=O)OC1CCCC1 (single isomer, unassigned) [Example 14A] | 0.01 µM | 0.0235 µM | – | –
CCCCOC(=O)C(C)(C)NP(=O)(CO[C@H](C)Cn1cnc2c(N)ncnc21)O[C@@H](C)C(=O)OC1CCCC1 (single isomer, unassigned) [Example 11A] | – | – | 0.0248 µM | 0.0662 µM
CC(C)OC(=O)COP(=O)(CO[C@H](C)Cn1cnc2c(N)ncnc21)NC(C)(C)C(=O)OC1CCCCC1 (single isomer, unassigned) [Example 15A] | 0.00998 µM | 0.0285 µM | – | –
CCCCCOC(=O)[C@H](C)OP(=O)(CO[C@H](C)Cn1cnc2c(N)ncnc21)NC(C)(C)C(=O)OC(C)C (single isomer, unassigned) [Example 10A] | – | – | 0.0263 µM | 0.142 µM
CCCCCCOC(=O)C(C)(C)NP(=O)(CO[C@H](C)Cn1cnc2c(N)ncnc21)O[C@@H](C)C(=O)OCC (stereo partly drawn) [Example 43, Hexyl 2-((((((R)-1-(6-amino-9H-purin-9-yl)propan-2-yl)oxy)methyl)(((S)-1-ethoxy-1-oxopropan-2-yl)oxy)phosphoryl)amino)-2-methylpropanoate] | 0.00615 µM | 0.0204 µM | – | –
CCCCCOC(=O)[C@H](C)OP(=O)(CO[C@H](C)Cn1cnc2c(N)ncnc21)NC(C)(C)C(=O)OC(C)C (single isomer, unassigned) [Example 10B] | – | – | 0.0856 µM | 0.357 µM
CCCCCCOC(=O)C(C)(C)NP(=O)(CO[C@H](C)Cn1cnc2c(N)ncnc21)OCC(=O)OC1CCCC1 (some centres unmarked) [Example 35] | 0.00383 µM | 0.014 µM | – | –
CC(C)OC(=O)COP(=O)(CO[C@H](C)Cn1cnc2c(N)ncnc21)NC(C)(C)C(=O)OC1CCCCC1 (single isomer, unassigned) [Example 15B] | – | – | 0.0103 µM | 0.0442 µM
CCCCCCOC(=O)C(C)(C)NP(=O)(CO[C@H](C)Cn1cnc2c(N)ncnc21)O[C@H](C)C(=O)OC(C)C (single isomer, unassigned) [Example 9A] | – | – | 0.0042 µM | 0.0261 µM
CC(C)OC(=O)COP(=O)(CO[C@H](C)Cn1cnc2c(N)ncnc21)NC(C)(C)C(=O)OC1CCCC1 (single isomer, unassigned) [Example 14B] | – | – | 0.0054 µM | 0.0362 µM
C[C@H](Cn1cnc2c(N)ncnc21)OCP(=O)(NC(C)(C)C(=O)OC1CCCC1)O[C@@H](C)C(=O)OC1CCCC1 (single isomer, unassigned) [Example 5B] | – | – | 0.00573 µM | 0.0234 µM
CC(C)COC(=O)C(C)(C)NP(=O)(CO[C@H](C)Cn1cnc2c(N)ncnc21)O[C@@H](C)C(=O)OC1CCCC1 (stereo partly drawn) [Example 37, Isobutyl 2-((((((R)-1-(6-amino-9H-purin-9-yl)propan-2-yl)oxy)methyl)(((S)-1-(cyclopentyloxy)-1-oxopropan-2-yl)oxy)phosphoryl)amino)-2-methylpropanoate] | 0.0103 µM | 0.0631 µM | – | –
CCCCCCOC(=O)C(C)(C)NP(=O)(CO[C@H](C)Cn1cnc2c(N)ncnc21)O[C@@H](C)C(=O)OC1CCCC1 (stereo partly drawn) [Example 34, Hexyl 2-((((((R)-1-(6-amino-9H-purin-9-yl)propan-2-yl)oxy)methyl)(((S)-1-(cyclopentyloxy)-1-oxopropan-2-yl)oxy)phosphoryl)amino)-2-methylpropanoate] | 0.00357 µM | 0.0129 µM | – | –
CCOC(=O)C(C)(C)NP(=O)(CO[C@H](C)Cn1cnc2c(N)ncnc21)OCC(=O)OC(C)C (stereo partly drawn) [Example 27, Ethyl 2-((((((R)-1-(6-amino-9H-purin-9-yl)propan-2-yl)oxy)methyl)(2-isopropoxy-2-oxoethoxy)phosphoryl)amino)-2-methylpropanoate] | 0.0101 µM | 0.0133 µM | – | –
CCCCOC(=O)C(C)(C)NP(=O)(CO[C@H](C)Cn1cnc2c(N)ncnc21)O[C@@H](C)C(=O)OC1CCCC1 (single isomer, unassigned) [Example 11B] | – | – | 0.00398 µM | 0.0228 µM
